Laboratory results: the supplement of paper PMC11061612

Key:
Capivasertib = compound: C1CN(CCC1(C(=O)N[C@@H](CCO)C2=CC=C(C=C2)Cl)N)C3=NC=NC4=C3C=CN4 [Capivasertib]; conditions: max 10 µM
Outline: (§1)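 Cancer cell lines in 1536-well plates (7.5 μl DMEM/F12 or RPMI, 10% FBS) were held 24 hours at 37°C and 5% CO2 and then dosed for 72 hours at a final DMSO of typically 0.2%. Viability was taken from CellTiter-Glo 2.0 luminescence, scaled between blank-well and DMSO-well means. Curves were fitted as two-parameter logistic models with a non-linear mixed effects model, from which the single-agent IC50 was taken.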

AZD1775 = compound: C=CCn1c(=O)c2cnc(Nc3ccc(N4CCN(C)CC4)cc3)nc2n1-c1cccc(C(C)(C)O)n1 [AZD1775]; conditions: max 3 µM
Outline: as §1

Trametinib = compound: CC(=O)Nc1cccc(-n2c(=O)n(C3CC3)c(=O)c3c(Nc4ccc(I)cc4F)n(C)c(=O)c(C)c32)c1 [Trametinib]; conditions: max 1 µM
Outline: as §1

Palbociclib = compound: CC(=O)c1c(C)c2cnc(Nc3ccc(N4CCNCC4)cn3)nc2n(C2CCCC2)c1=O [Palbociclib]; conditions: max 10 µM
Outline: as §1

AZD1390 = compound: CC(C)n1c(=O)n(C)c2cnc3cc(F)c(-c4ccc(OCCCN5CCCCC5)nc4)cc3c21 [AZD1390]; conditions: max 0.3 µM
Outline: as §1

Venetoclax = compound: CC1(C)CCC(CN2CCN(c3ccc(C(=O)NS(=O)(=O)c4ccc(NCC5CCOCC5)c([N+](=O)[O-])c4)c(Oc4cnc5[nH]ccc5c4)c3)CC2)=C(c2ccc(Cl)cc2)C1 [Venetoclax]; conditions: max 1 µM
Outline: as §1

Dasatinib = compound: CC1=C(C(=CC=C1)Cl)NC(=O)C2=CN=C(S2)NC3=CC(=NC(=N3)C)N4CCN(CC4)CCO [Dasatinib]; conditions: max 2 µM
Outline: as §1

SG3199 = compound: CC1=CN2[C@@H](C1)C=NC3=CC(=C(C=C3C2=O)OC)OCCCCCOC4=C(C=C5C(=C4)N=C[C@@H]6CC(=CN6C5=O)C)OC [SG3199]; conditions: max 0.001 µM
Outline: as §1

AZD2811 = compound: CCN(CCO)CCCOc1ccc2c(Nc3cc(CC(=O)Nc4cccc(F)c4)[nH]n3)ncnc2c1 [AZD2811]; conditions: max 1 µM
Outline: as §1

SN-38 = compound: CCc1c2c(nc3ccc(O)cc13)-c1cc3c(c(=O)n1C2)COC(=O)[C@]3(O)CC [SN-38]; conditions: max 0.3 µM
Outline: as §1

AZD0156 = compound: CN(C)CCCOc1ccc(-c2ccc3ncc4c(c3c2)n(C2CCOCC2)c(=O)n4C)cn1 [AZD0156]; conditions: max 3 µM
Outline: as §1

AZD4320 = compound: CN(CC[C@H](CSC1=CC=CC=C1)NC2=C(C=C(C=C2)S(=O)(=O)NC(=O)C3=CC=C(C=C3)N4CCC(CC4)[C@H](C5=CC=CC=C5C6=CC=C(C=C6)Cl)O)S(=O)(=O)C(F)(F)F)CCO [AZD4320]; conditions: max 1 µM
Outline: as §1

Alisertib = compound: COc1cc(Nc2ncc3c(n2)-c2ccc(Cl)cc2C(c2c(F)cccc2OC)=NC3)ccc1C(=O)O [Alisertib]; conditions: max 10 µM
Outline: as §1

Gefitinib = compound: COc1cc2ncnc(Nc3ccc(F)c(Cl)c3)c2cc1OCCCN1CCOCC1 [Gefitinib]; conditions: max 10 µM
Outline: as §1

Prexasertib = compound: COc1cccc(OCCCN)c1-c1cc(Nc2cnc(C#N)cn2)n[nH]1 [Prexasertib]; conditions: max 1 µM
Outline: as §1

Doxorubicin = compound: COc1cccc2c1C(=O)c1c(O)c3c(c(O)c1C2=O)C[C@@](O)(C(=O)CO)C[C@@H]3O[C@H]1C[C@H](N)[C@H](O)[C@H](C)O1 [Doxorubicin]; conditions: max 1 µM
Outline: as §1

AZD5153 = compound: COc1nnc2ccc(N3CCC(c4ccc(OCCN5CCN(C)C(=O)[C@H]5C)cc4)CC3)nn12 [AZD5153]; conditions: max 1 µM
Outline: as §1

Lapatinib = compound: CS(=O)(=O)CCNCc1ccc(-c2ccc3ncnc(Nc4ccc(OCc5cccc(F)c5)c(Cl)c4)c3c2)o1 [Lapatinib]; conditions: max 10 µM
Outline: as §1

AZD8186 = compound: C[C@@H](Nc1cc(F)cc(F)c1)c1cc(C(=O)N(C)C)cc2c(=O)cc(N3CCOCC3)oc12 [AZD8186]; conditions: max 3 µM
Outline: as §1

Crizotinib = compound: C[C@@H](Oc1cc(-c2cnn(C3CCNCC3)c2)cnc1N)c1c(Cl)ccc(F)c1Cl [Crizotinib]; conditions: max 10 µM
Outline: as §1

Savolitinib = compound: C[C@@H](c1ccc2nccn2c1)n1nnc2ncc(-c3cnn(C)c3)nc21 [Savolitinib]; conditions: max 1 µM
Outline: as §1

AZD6738 = compound: C[C@@H]1COCCN1C2=NC(=NC(=C2)C3(CC3)[S@](=N)(=O)C)C4=C5C=CNC5=NC=C4 [AZD6738]; conditions: max 10 µM
Outline: as §1

AZD5991 = compound: Cc1c2c(nn1C)CSCc1cc(n(C)n1)CSc1cc(c3ccccc3c1)OCCCc1c(C(=O)O)n(C)c3c-2c(Cl)ccc13 [AZD5991]; conditions: max 1 µM
Outline: as §1

AZD7648 = compound: Cc1cc2ncnn2cc1Nc1ncc2c(n1)n(C1CCOCC1)c(=O)n2C [AZD7648]; conditions: max 10 µM
Outline: as §1

Taselisib = compound: Cc1nc(-c2cn3c(n2)-c2ccc(-c4cnn(C(C)(C)C(N)=O)c4)cc2OCC3)n(C(C)C)n1 [Taselisib]; conditions: max 10 µM
Outline: as §1

Selumetinib = compound: Cn1cnc2c(F)c(Nc3ccc(Br)cc3Cl)c(C(=O)NOCCO)cc21 [Selumetinib]; conditions: max 10 µM
Outline: as §1

MK-2206 = compound: NC1(c2ccc(-c3nc4ccn5c(=O)[nH]nc5c4cc3-c3ccccc3)cc2)CCC1 [MK-2206]; conditions: max 10 µM
Outline: as §1

Olaparib = compound: O=C(c1cc(Cc2n[nH]c(=O)c3ccccc23)ccc1F)N1CCN(C(=O)C2CC2)CC1 [Olaparib]
Outline: as §1

Cell Line	IC50, cell viability 72 h (Capivasertib)	IC50, cell viability 72 h (AZD1775)	IC50, cell viability 72 h (Trametinib)	IC50, cell viability 72 h (Palbociclib)	IC50, cell viability 72 h (AZD1390)	IC50, cell viability 72 h (Venetoclax)	IC50, cell viability 72 h (Dasatinib)	IC50, cell viability 72 h (SG3199)	IC50, cell viability 72 h (AZD2811)	IC50, cell viability 72 h (SN-38)	IC50, cell viability 72 h (AZD0156)	IC50, cell viability 72 h (AZD4320)	IC50, cell viability 72 h (Alisertib)	IC50, cell viability 72 h (Gefitinib)	IC50, cell viability 72 h (Prexasertib)	IC50, cell viability 72 h (Doxorubicin)	IC50, cell viability 72 h (AZD5153)	IC50, cell viability 72 h (Lapatinib)	IC50, cell viability 72 h (AZD8186)	IC50, cell viability 72 h (Crizotinib)	IC50, cell viability 72 h (Savolitinib)	IC50, cell viability 72 h (AZD6738)	IC50, cell viability 72 h (AZD5991)	IC50, cell viability 72 h (AZD7648)	IC50, cell viability 72 h (Taselisib)	IC50, cell viability 72 h (Selumetinib)	IC50, cell viability 72 h (MK-2206)	IC50, cell viability 72 h (Olaparib; max 10 µM)	IC50, cell viability 72 h (Olaparib; max 3 µM)
NCI-H513 (Other Solid Carcinomas)	> 10 µM	> 3000 nM	643 nM	> 10 µM	> 300 nM	> 1000 nM	> 2000 nM	> 1 nM	> 1000 nM	210 nM	> 3000 nM	> 1000 nM	> 10 µM	> 10 µM	> 1000 nM	> 1000 nM	> 1000 nM	> 10 µM	> 3000 nM	> 10 µM	> 1000 nM	> 10 µM	> 1000 nM	> 10 µM	> 10000 nM	> 10 µM	> 10 µM	> 10 µM	
NCI-H1573 (Lung Adenocarcinoma)	> 10 µM	> 3000 nM	429 nM	> 10 µM	> 300 nM	> 1000 nM	> 2000 nM	> 1 nM	> 1000 nM	> 300 nM	> 3000 nM	> 1000 nM	> 10 µM	> 10 µM	296 nM	> 1000 nM	> 1000 nM	> 10 µM	> 3000 nM	> 10 µM	> 1000 nM	> 10 µM	> 1000 nM	> 10 µM	> 10000 nM	> 10 µM	> 10 µM	> 10 µM	
NCI-H2347 (Lung Adenocarcinoma)	> 10 µM	> 3000 nM	> 1000 nM	> 10 µM	> 300 nM	> 1000 nM	> 2000 nM	> 1 nM	> 1000 nM	> 300 nM	> 3000 nM	> 1000 nM	> 10 µM	> 10 µM	> 1000 nM	> 1000 nM	> 1000 nM	> 10 µM	> 3000 nM	> 10 µM	> 1000 nM	> 10 µM	> 1000 nM	> 10 µM	> 10000 nM	> 10 µM	> 10 µM	> 10 µM	
NCI-H2405 (Lung Adenocarcinoma)	> 10 µM	> 3000 nM	430 nM	> 10 µM	> 300 nM	> 1000 nM	> 2000 nM	> 1 nM	> 1000 nM	> 300 nM	> 3000 nM	> 1000 nM	> 10 µM	> 10 µM	> 1000 nM	> 1000 nM	> 1000 nM	> 10 µM	> 3000 nM	> 10 µM	> 1000 nM	> 10 µM	> 1000 nM	> 10 µM	> 10000 nM	> 10 µM	> 10 µM	> 10 µM	
OVISE (Ovarian Carcinoma)	> 10 µM	952 nM	> 1000 nM	> 10 µM	> 300 nM	> 1000 nM	415 nM	> 1 nM	> 1000 nM	> 300 nM	> 3000 nM	463 nM	8.95 µM	> 10 µM	100 nM	> 1000 nM	681 nM	> 10 µM	> 3000 nM	> 10 µM	> 1000 nM	5.98 µM	> 1000 nM	> 10 µM	449 nM	> 10 µM	> 10 µM	> 10 µM	
PFSK-1 (Other Solid Carcinomas)	> 10 µM	1060 nM	> 1000 nM	> 10 µM	> 300 nM	> 1000 nM	> 2000 nM		> 1000 nM	32.4 nM	> 3000 nM	> 1000 nM	> 10 µM	> 10 µM	40.4 nM		> 1000 nM	> 10 µM	> 3000 nM	3.07 µM	> 1000 nM	8.13 µM	114 nM	> 10 µM	626 nM	> 10 µM	2.09 µM		> 3 µM
RPMI-7951 (Melanoma)	3.38 µM	489 nM	136 nM	> 10 µM	> 300 nM	> 1000 nM	130 nM	> 1 nM	> 1000 nM	15.8 nM	> 3000 nM	> 1000 nM	2.14 µM	> 10 µM	19.4 nM	173 nM	630 nM	> 10 µM	2730 nM	5.75 µM	> 1000 nM	2.25 µM	488 nM	> 10 µM	2350 nM	> 10 µM		> 10 µM	
SCC-3 (B-Cell Non-Hodgkin's Lymphoma)	> 10 µM	370 nM	> 1000 nM	> 10 µM	> 300 nM	> 1000 nM	> 2000 nM	> 1 nM	> 1000 nM	6.1 nM	> 3000 nM	> 1000 nM	0.721 µM	> 10 µM	17.6 nM	386 nM	67.4 nM	> 10 µM	> 3000 nM	0.717 µM	> 1000 nM	1.07 µM	> 1000 nM	> 10 µM	> 10000 nM	> 10 µM		> 10 µM	
